In ChEMBL document CHEMBL1781921, “Concise synthesis and CDK/GSK inhibitory activity of the missing 9-azapaullones” (Bioorg Med Chem Lett, 2010):

How the values were obtained:
[1] = biological target: Dual specificity protein kinase CLK1 (Homo sapiens, UniProt P49759); assay: Inhibition of CLK1
[2] = biological target: Cyclin-dependent kinase 5/CDK5 activator 1 (Homo sapiens, UniProt Q00535); assay: Inhibition of human recombinant CDK5/p25 assessed as incorporation of [gamma-33P]-ATP into histone H1 substrate after 30 mins by scintillation counting; type: protein-complex assay
Chain of Cyclin-dependent kinase 5/CDK5 activator 1 (Q00535 whole entry): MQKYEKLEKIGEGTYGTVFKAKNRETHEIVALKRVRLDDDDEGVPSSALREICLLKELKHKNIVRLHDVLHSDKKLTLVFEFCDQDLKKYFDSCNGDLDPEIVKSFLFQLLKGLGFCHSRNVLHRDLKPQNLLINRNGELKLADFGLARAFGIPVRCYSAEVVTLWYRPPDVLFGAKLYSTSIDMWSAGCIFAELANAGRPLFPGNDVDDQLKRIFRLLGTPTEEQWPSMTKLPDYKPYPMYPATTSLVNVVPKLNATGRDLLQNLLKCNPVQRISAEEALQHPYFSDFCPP
Chain of Cyclin-dependent kinase 5/CDK5 activator 1 (Q15078 whole entry, further chain): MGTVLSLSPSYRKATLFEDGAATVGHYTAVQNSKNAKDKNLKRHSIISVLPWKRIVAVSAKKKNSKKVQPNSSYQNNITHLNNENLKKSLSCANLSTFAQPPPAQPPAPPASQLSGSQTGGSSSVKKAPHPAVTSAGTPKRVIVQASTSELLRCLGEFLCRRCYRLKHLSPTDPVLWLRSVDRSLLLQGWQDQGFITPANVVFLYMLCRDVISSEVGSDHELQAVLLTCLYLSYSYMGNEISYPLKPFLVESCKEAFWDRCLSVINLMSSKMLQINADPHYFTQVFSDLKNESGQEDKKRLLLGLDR

[3] = biological target: Cyclin-dependent kinase 2/cyclin A (Homo sapiens, UniProt P24941); assay: Inhibition of human recombinant CDK2/cyclin A assessed as incorporation of [gamma-33P]-ATP into histone H1 substrate after 30 mins by scintillation counting; type: protein-complex assay
CDK9/cyclin T1 = CDK9/cyclin T1 (Homo sapiens, UniProt P50750); assay: Inhibition of human recombinant CDK9/cyclin T expressed in insect cells assessed as incorporation of [gamma-33P]-ATP in to pRB fragment (773 to 928) substrate after 30 mins by scintillation counting
Chain of CDK9/cyclin T1 (O60563 whole entry, the tested form may be a part, canonical isoform): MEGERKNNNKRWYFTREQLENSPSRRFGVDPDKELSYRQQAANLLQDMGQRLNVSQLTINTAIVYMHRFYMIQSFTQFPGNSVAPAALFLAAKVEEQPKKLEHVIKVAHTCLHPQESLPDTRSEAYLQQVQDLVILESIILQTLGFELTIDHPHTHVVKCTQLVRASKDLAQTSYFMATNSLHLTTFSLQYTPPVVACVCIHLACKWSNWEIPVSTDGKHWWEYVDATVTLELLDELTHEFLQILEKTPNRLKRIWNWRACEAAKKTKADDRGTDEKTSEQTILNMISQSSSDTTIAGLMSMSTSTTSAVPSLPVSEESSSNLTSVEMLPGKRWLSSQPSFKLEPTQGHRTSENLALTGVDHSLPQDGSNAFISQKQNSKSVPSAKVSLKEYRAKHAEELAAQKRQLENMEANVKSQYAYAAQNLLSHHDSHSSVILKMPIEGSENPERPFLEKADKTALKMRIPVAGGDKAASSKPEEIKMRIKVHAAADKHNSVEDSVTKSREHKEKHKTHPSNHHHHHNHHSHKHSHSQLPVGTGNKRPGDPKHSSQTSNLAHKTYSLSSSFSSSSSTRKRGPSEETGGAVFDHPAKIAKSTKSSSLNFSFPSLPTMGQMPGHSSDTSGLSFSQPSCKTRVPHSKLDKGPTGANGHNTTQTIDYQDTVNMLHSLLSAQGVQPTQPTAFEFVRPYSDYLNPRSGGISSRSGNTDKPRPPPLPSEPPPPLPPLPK
Chain of CDK9/cyclin T1 (P50750 whole entry, the tested form may be a part, canonical isoform): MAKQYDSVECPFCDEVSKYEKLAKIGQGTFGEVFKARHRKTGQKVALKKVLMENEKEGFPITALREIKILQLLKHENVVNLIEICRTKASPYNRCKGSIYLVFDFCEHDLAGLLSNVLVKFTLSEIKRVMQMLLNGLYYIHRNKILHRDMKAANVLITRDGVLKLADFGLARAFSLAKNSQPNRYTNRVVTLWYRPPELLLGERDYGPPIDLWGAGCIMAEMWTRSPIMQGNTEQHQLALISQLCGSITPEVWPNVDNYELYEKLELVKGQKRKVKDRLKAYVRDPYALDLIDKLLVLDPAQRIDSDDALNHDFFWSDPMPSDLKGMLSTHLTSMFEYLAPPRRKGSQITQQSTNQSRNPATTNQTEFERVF

[4] = biological target: T1, Casein kinase I isoform alpha (Sus scrofa, UniProt O19175); assay: Inhibition of porcine brain CK1 assessed as incorporation of [gamma-33P]-ATP into RRKHAAIGpSAYSITA substrate after 30 mins by scintillation counting
T1 sequence (O19175 whole entry): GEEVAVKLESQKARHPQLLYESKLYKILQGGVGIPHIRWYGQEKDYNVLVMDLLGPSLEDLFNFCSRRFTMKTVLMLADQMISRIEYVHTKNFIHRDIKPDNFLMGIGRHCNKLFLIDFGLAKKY

[5] = biological target: T2, Glycogen synthase kinase 3 (Plasmodium falciparum (isolate 3D7), UniProt O77344); assay: Inhibition of Plasmodium falciparum GSK3
T2 sequence (O77344 whole entry): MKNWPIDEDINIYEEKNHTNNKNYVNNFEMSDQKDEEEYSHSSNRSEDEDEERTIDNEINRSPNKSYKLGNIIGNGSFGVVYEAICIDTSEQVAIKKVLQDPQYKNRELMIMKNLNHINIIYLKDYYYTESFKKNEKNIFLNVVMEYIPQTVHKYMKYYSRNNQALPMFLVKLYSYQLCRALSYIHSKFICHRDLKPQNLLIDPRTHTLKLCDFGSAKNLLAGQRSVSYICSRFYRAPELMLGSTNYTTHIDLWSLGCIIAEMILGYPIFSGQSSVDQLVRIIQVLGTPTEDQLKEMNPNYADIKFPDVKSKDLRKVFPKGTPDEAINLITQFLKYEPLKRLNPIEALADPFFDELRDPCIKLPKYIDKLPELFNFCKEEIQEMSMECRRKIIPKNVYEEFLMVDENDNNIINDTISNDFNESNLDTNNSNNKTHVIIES

[6] = biological target: Dual specificity tyrosine-phosphorylation-regulated kinase 1A (Rattus norvegicus, UniProt Q63470); assay: Inhibition of rat recombinant GST-fused DYRK1A expressed in Escherichia coli assessed as assessed as incorporation of [gamma-33P]-ATP into myelin basic protein after 30 mins by scintillation counting
[7] = Inhibition of M-phase starfish oocytes CDK1/cyclin B assessed as incorporation of [gamma-33P]-ATP into histone H1 substrate after 30 mins by scintillation counting; type: cell-based, Asteroidea; details: oocyte

Chain of Dual specificity protein kinase CLK1 (P49759 whole entry): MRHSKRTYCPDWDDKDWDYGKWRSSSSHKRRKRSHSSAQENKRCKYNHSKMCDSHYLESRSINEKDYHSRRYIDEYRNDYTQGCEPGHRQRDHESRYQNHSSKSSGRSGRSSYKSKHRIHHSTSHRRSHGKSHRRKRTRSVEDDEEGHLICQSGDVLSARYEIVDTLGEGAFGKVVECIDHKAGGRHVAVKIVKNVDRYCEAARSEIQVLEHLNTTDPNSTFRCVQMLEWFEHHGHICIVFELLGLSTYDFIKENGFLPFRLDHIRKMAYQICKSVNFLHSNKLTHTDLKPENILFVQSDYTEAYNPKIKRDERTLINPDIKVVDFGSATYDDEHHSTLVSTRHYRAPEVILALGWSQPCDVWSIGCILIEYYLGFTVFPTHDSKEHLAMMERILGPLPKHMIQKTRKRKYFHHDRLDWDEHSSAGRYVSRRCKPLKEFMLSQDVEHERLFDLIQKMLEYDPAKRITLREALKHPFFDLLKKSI

IC50 [1] | IC50 [2] | IC50 [3] | IC50 (CDK9/cyclin T1) | IC50 [4] | IC50 [5] | IC50 [6] | Compound | IC50 [7]
> 10 µM | 3 µM | 2.1 µM | 0.22 µM | > 10 µM | > 10 µM | – | O=C1Cc2c([nH]c3ccncc23)-c2ccccc2N1 | –
> 10 µM | > 10 µM | > 10 µM | 7.4 µM | > 10 µM | > 10 µM | > 10 µM | O=C1Cc2c([nH]c3cc[n+](Cc4ccccc4)cc23)-c2ccccc2N1 | > 10 µM
> 10 µM | 7.3 µM | 6.2 µM | 0.24 µM | > 10 µM | > 10 µM | > 10 µM | O=C1Cc2c([nH]c3cc[n+]([O-])cc23)-c2ccccc2N1 | 5.7 µM
> 10 µM | – | – | 0.064 µM | > 10 µM | > 10 µM | > 10 µM | O=C1Cc2c([nH]c3ccc(Br)cc23)-c2ccccc2N1 [KENPAULLONE] | 0.5 µM
– | – | 2.7 µM | 0.81 µM | – | – | – | O=C1Cc2c([nH]c3ccccc23)-c2ccccc2N1 [PAULLONE] | 3 µM
